Laboratory results published in article PMC9602792, “Preclinical evaluation of the epithelial sodium channel inhibitor AZD5634 and implications on human translation” (American Journal of Physiology - Lung Cellular and …, 2022).

What was measured:
[1] = test system: HBECs grown under ALI conditions; assay: Gravimetric measurement of ASL (fluid retention) in HBEC ALI cultures; assay type: cell-based, human; conditions: gravimetric ALI assay; concentrations of 0.1 µM and above
Method: After 3–4 wk, the HBEC ALI cultures were washed with PBS twice before the experiment was initiated. Thirty microliters of either vehicle or test compound (10 μM) was added apically and inserts were weighed after removal of basolateral fluid as a crude but simple way to measure retention of fluid on the apical side of the airway cultures. The weighing procedure was repeated at 4, 8, and 24 h.

ENaC = molecular target: T1, ENaC (Homo sapiens, UniProt P37088+P51168+P51170); assay: Ussing chamber short-circuit current (Isc) in normal HBEC ALI cultures from healthy donors; assay type: cell-based
T1 construct: host or cells: primary normal human bronchial epithelial cells, ALI culture
T1 sequence (P37088 1-669): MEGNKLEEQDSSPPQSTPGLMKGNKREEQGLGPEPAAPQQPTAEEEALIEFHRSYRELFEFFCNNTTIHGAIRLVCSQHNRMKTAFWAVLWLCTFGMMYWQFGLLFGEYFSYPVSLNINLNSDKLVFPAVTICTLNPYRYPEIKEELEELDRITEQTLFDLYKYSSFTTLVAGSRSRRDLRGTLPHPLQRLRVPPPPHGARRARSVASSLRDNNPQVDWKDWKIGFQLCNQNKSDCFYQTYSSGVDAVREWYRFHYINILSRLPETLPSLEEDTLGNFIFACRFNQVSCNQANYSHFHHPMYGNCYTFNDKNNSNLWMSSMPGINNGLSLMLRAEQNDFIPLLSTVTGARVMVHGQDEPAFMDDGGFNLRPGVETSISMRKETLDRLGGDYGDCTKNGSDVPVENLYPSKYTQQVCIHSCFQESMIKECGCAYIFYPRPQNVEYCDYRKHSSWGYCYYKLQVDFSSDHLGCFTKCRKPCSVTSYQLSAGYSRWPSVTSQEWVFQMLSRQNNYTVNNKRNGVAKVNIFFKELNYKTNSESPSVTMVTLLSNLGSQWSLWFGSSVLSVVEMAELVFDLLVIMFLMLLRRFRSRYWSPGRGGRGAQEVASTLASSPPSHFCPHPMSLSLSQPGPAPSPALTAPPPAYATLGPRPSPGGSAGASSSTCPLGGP
T1 sequence (P51168 1-640): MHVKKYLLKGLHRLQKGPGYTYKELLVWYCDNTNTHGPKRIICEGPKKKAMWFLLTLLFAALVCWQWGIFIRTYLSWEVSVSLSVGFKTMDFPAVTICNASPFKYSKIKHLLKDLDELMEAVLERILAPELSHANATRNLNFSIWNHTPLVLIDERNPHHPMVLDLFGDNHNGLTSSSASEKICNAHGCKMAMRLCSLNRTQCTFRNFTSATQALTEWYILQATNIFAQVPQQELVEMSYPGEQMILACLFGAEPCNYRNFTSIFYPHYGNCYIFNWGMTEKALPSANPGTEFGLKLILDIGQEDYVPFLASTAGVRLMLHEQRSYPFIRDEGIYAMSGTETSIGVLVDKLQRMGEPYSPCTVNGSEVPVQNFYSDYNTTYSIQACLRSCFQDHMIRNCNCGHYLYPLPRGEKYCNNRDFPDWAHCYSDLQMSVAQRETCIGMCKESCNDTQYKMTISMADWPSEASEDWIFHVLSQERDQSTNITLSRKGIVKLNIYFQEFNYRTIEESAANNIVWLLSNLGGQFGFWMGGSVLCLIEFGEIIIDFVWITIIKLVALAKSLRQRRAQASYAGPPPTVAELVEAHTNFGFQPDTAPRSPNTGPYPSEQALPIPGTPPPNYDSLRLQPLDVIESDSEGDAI
T1 sequence (P51170 1-649): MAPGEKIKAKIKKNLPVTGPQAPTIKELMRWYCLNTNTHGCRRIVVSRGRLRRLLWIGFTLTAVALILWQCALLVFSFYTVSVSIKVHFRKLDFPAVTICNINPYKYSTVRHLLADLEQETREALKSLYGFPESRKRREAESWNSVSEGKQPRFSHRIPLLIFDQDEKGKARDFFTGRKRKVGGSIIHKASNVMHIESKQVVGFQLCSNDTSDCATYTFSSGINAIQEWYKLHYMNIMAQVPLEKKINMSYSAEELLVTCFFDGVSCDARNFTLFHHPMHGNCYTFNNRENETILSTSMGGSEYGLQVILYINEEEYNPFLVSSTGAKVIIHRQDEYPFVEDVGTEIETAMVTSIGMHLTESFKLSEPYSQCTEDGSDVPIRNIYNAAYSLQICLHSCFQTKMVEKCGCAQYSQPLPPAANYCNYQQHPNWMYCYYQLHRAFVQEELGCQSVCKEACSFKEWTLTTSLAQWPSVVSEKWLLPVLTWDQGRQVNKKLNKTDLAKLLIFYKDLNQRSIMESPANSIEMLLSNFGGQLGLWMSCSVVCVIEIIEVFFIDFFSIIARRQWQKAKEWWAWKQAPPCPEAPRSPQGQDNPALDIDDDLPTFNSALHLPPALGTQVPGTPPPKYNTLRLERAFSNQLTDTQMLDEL
Method: (§1) Normal human bronchial epithelial cell (HBEC) cultures from healthy donors were procured from MatTek Corporation (Ashland, MA), grown at an ALI on Transwell permeable supports (0.4 µm polycarbonate membrane, 12 mm insert, and Costar Corning), and used to test the in vitro potency of AZD5634. Using the same protocol, sheep ALI cultures were prepared from primary bronchial epithelial cells (native sheep tracheas were obtained from Öströö Sheep Farm, Sweden, and internally processed at AstraZeneca R&D, Gothenburg, Sweden) to validate AZD5634 potency at sheep ENaC. Experiments were performed using modified Ussing chambers containing carboxygenated Krebs solution (95% O2-5% CO2) at 37°C. Cell layers were allowed to equilibrate before being voltage-clamped at 0 mV, and then briefly clamped at 10 mV to assess transepithelial electrical resistance.
All data are presented as means ± SE. Values of n refer to the number of cultures used in each group as appropriate. For normally distributed data, paired or unpaired Student’s t tests were used. For data that were not normally distributed, Mann–Whitney U test and Wilcoxon-matched pairs test were used. For comparisons of multiple groups, ANOVA tests were used followed by Tukey–Kramer multiple comparisons test (parametric) or ANOVA followed by Kruskal–Wallis test (nonparametric). For experiments using primary HBECs, a minimum of four different donors supplied cultures for each experiment. For the Ussing chamber data, unconstrained concentration–response curves were fitted using an in-house Microsoft Excel add-in package by nonlinear, four parameter, logistic regression analysis. From these curves, pEC50 and Emax values were taken from which mean values were calculated.

sheep ENaC = assay: Ussing chamber short-circuit current (Isc) in sheep bronchial epithelial ALI cultures; assay type: cell-based; conditions: bronchial epithelial cells from healthy sheep, read-out: potency (IC50) on inhibition of ENaC (EC50 in Fig. 1B legend)
Method: as §1
All data are presented as means ± SE. Values of n refer to the number of cultures used in each group as appropriate. For normally distributed data, paired or unpaired Student’s t tests were used. For data that were not normally distributed, Mann–Whitney U test and Wilcoxon-matched pairs test were used. […] From these curves, pEC50 and Emax values were taken from which mean values were calculated.

[2] = test system: sodium/hydrogen exchangers; design: method as in PMID 33974881; conditions: specificity unknown; cited from earlier work

AZD5634
duration of (fluid-retaining) effect on ASL [1]: > 24 h
additional effect on Isc when benzamil was added (ENaC; benzamil 10 µM on final response plateau): No additional effect
potency of inhibition of amiloride-sensitive current (Isc) relative to amiloride (ENaC; non-CF and CF airway cells): 2 to 3 logs
IC50 (ENaC; normal HBEC ALI cultures, normalized to 10 µM benzamil = 100%, read-out: IC50 for decrease in Isc (EC50 in Fig. 1A legend)): 3.8 nM
potency shift versus benzamil (ENaC; normal HBEC cultures, Isc): 1 log unit
IC50 (sheep ENaC): 5.5 nM
effect on sodium/hydrogen exchangers [2]: blocks sodium/hydrogen exchangers
